Assay results: patent US20230136562A1, “SPIROUREA DERIVATIVES” (Idorsia Pharmaceuticals Ltd, priority 2020, published 2023)
Where a name gives a salt, the structure may show the parent alone. Read-outs that look alike come from different tables or passages of the source.

How the values were obtained:
DBA/2J mice = test: Audiogenic seizure-sensitive mouse model of generalized convulsive seizures (AGS); assay type: in vivo; settings: challenge 1 h, 90% MC 0.5% + 10% PEG400, read-out: Seizure stage [% vs. vehicle]; for change in vivo at 30 mg/kg: 30 mg/kg po
Experimental: (§1) Formulation and Administration.
(§2) Compounds were formulated in a 10% polyethylene glycol 400 (PEG 400)/90% aqueous solution of 0.5% methylcellulose (MC 0.5%). Firstly drugs are dissolved in PEG 400 and then suspended in MC 0.5% for oral gavage at X mg/5 mL/kg (X see table).
Audiogenic Seizure-Sensitive Mouse Model of Generalized Convulsive Seizures
1. Procedure: Following two days of acclimatisation, auditory seizures are induced in male juvenile DBA/2J mice (22-24 days old). Each mouse is placed individually in the exposure chamber, an hemispheric acrylic glass dome (diameter: 50 cm) within a sound-attenuated box. The sound-attenuated box is equipped with two house lights and a camera system (Fire-I from Unibrain) in order to observe and record the behavioral seizure response. After 60 seconds of habituation, the stimulus, a mixed frequency tone of 15-20 kHz at 110 dB (SASLab Lite, Avisoft Bioacoustics), is played from a speaker that is placed on the top center of the dome. […] Seizures are classified as following: stage 0, normal behavior; stage 1, wild running; stage 2, generalized clonus; stage 3, tonic extension of the hind limbs.
2. Compounds testing: Acute compound effects on audiogenic generalized convulsive seizures are evaluated in independent groups of 8-10 mice randomly assigned. Following oral administration of compound or vehicle, the maximum seizure stage during sound exposure is assessed. Compounds are given 1 hour before exposure to the stimulus. Each mouse is exposed to the auditory stimulus only once and euthanized afterwards by CO2 inhalation.

[1] = tested on: primary neuronal cultures from embryonic rat brains; test: Rat oscillation assay (FLIPR, neuronal calcium oscillations); assay type: cell-based
Summary of the method: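 Cortical neurons from E18 Wistar rat embryos, cultured 8–10 days at high density, loaded with 1 μM Fluo-8 AM; calcium oscillations recorded by FLIPR once per second in Mg-free HBSS with 2 mM CaCl2, 20 mM HEPES, pH 7.4. Two acquisitions ("Acute", 500 sec, compound added at 250 sec; "20 min"), ± Kv7 blocker XE-991.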

Wistar rats = test: Amygdala-kindling rat model; assay type: in vivo; settings: 1 mg/kg po, time of challenge 30 min, HCl salt, formulation 90% MC 0.5% + 10% PEG400
Experimental: as §1, §2
Amygdala-Kindling Rat Model:
1. Procedure: Adult male Wistar rats (Harlan Laboratories, Netherlands, or Charles Rivers, Germany; body weight 300-350 g) were stereotaxically implanted with twisted bipolar plastic-coated stainless steel electrode (MS333-2-BIU 10 mm, Plastics One) into the right basolateral amygdala under isoflurane anesthesia. To place the electrode, trepanations were made in the skull and the electrode was lowered into the right basolateral amygdala (from bregma: anteriorposterior (AP): −2.5 mm, medio-lateral (ML): −3.5 mm, dorso-ventral (DV): −8.6 mm; α=10°) and secured to the skull with screws and dental acrylate. After one week of recovery, they were handled daily and habituated over one week to the kindling set-up. Kindling procedure: For a kindling session each rat was placed individually into a smooth acrylic plastic, round-bottomed bowl (Ø 36 cm, height 36 cm, BASi movement-responsive caging system) and its intracranial implanted electrode was connected to the stimulator (STG4008, Multichannel Systems GmbH) and the recording devices (PowerLab 8/35, ADInstruments Ltd) via a cable (335-340/3 (C), Plastics One). For the kindling procedure, each rat was exposed once daily to an electrical stimulation and the behavioral symptoms of the evoked seizure were observed and classified according to the modified Racine scale (stage 0, arrest, wet dog shakes, normal behaviour; stage 1, facial twitches: nose, lips, eyes; stage 2, chewing, head nodding; stage 3, forelimb clonus; stage 4, rearing, falling on forelimbs; stage 5, rearing, falling on side or back, rolling). The electrical stimulus consists of a 1s-train of 50 Hz square-wave biphasic pulses of 1-ms duration at an intensity of 400 μA (suprathreshold intensity). […] Data Scoring and analysis. The duration of electroencephalographic seizures (afterdischarge, AD) was recorded using LabChart7 Pro software (ADlnstruments Ltd). Simultaneously, videos were recorded to evaluate seizure stage (SS).
2. Compound testing: Acute drug effects were evaluated in groups of 6-8 fully kindled rats in a randomized cross-over design with 48 h between drug and vehicle applications. Following oral administration of drug or vehicle, drug testing included determination of the afterdischarge threshold (the minimal stimulation intensity necessary to evoke an afterdischarge (electroencephalographically measured neuronal hyper-synchronous activity with an amplitude 2-times higher than baseline amplitude and a frequency of ≥1 Hz) of at least 3 sec duration) and monitoring electroencephalographic and behavioral correlates of the evoked seizure at ADT (afterdischarge threshold), including AD duration and SS, by a experimenter blind to treatment assignment.

[2] = Rattus norvegicus, 20 min, AUC of fluorescence measured 20 min after compound addition, read-out: FLIPR: IC50 [nM] 20 min
[3] = Rattus norvegicus, Acute phase, ratio of AUC fluorescence before and after compound addition, read-out: FLIPR: IC50 [nM] acute

## O=C(NCc1ccnc(OCC(F)(F)F)c1)NC1CC2(C1)CC(F)(F)C2 [Example 160, 1-(6,6-Difluoro-spiro[3.3]hept-2-yl)-3-[2-(2,2,2-trifluoro-ethoxy)-pyridin-4-ylmethyl]-urea]
DBA/2J mice
  change in vivo at 30 mg/kg: -100%
[1]; [2]
  IC50: 253 nM
[1]; [3]
  IC50: 83 nM

## O=C(NCc1cccc(OC(F)F)c1)NC1CC2(CC2)C1 [Example 155, 1-(3-Difluoromethoxy-benzyl)-3-spiro[2.3]hex-5-yl-urea]
DBA/2J mice
  change in vivo at 30 mg/kg: -100%
[1]; [2]
  IC50: 163 nM
[1]; [3]
  IC50: 151 nM

## O=C(NCc1ccnc(OCC(F)(F)F)c1)NC1CC2(CC2)C1 [Example 159, 1-Spiro[2.3]hex-5-yl-3-[2-(2,2,2-trifluoro-ethoxy)-pyridin-4-ylmethyl]-urea]
DBA/2J mice
  change in vivo at 30 mg/kg: -100%
[1]; [2]
  IC50: 47 nM
[1]; [3]
  IC50: 26 nM

## C[C@H](NC(=O)NC1CC2(CCC2)C1)c1cc(OCC(F)(F)F)ncn1 (single isomer, unassigned) [Example 182]
DBA/2J mice; 5 mg/kg po
  change in vivo at 5 mg/kg: -100%
[1]; [2]
  IC50: 13 nM
[1]; [3]
  IC50: 11 nM

## CC(NC(=O)NC1CC2(CCC2)C1)c1ccnc(OC(F)F)c1 (racemic) [Example 100 (HCl salt), (±)-1-[1-(2-Difluoromethoxy-pyridin-4-yl)-ethyl]-3-spiro[3.3]hept-2-yl-urea]
DBA/2J mice; 33 mg/kg po
  change in vivo at 33 mg/kg: -71%

## COCC(Oc1cc(CNC(=O)NC2CC3(CCC3)C2)ccn1)C(F)(F)F (single isomer, unassigned) [Example 172, 1-Spiro[3.3]hept-2-yl-3-[2-(2,2,2-trifluoro-1-methoxymethyl-ethoxy)-pyridin-4-ylmethyl]-urea]
DBA/2J mice
  change in vivo at 30 mg/kg: -81%
[1]; AUC of fluorescence measured 20 min after compound addition, read-out: FLIPR: IC50 [nM] 20 min
  IC50: 37 nM
[1]; Acute phase, ratio of AUC fluorescence before and after compound addition, read-out: FLIPR: IC50 [nM] acute
  IC50: 38 nM

## C[C@H](NC(=O)NC1CC2(CCC2)C1)c1ccnc(OC(F)F)c1 (single isomer, unassigned) [Example 168]
Wistar rats
  AD duration [% vs veh]: −84 % vs veh
  Seizure stage [% vs veh]: −58 % vs veh
[1]; [2]
  IC50: 3 nM
[1]; [3]
  IC50: 3.7 nM
